Among the test systems are BT-549 breast; HCT-15 colon; HL-60(TB) leukemia; HT29 colon; KM12 colon; LOX IMVI melanoma; MALME-3M melanoma; NCI-H23 lung; SF-295 CNS; T-47D breast.
Holding throughout (experiment): NCI tumour cell line growth inhibition, 48 h

Experimental findings from PubChem BioAssay (NCI) are described below.

Molecules are shown by their SMILES. Several values for one entry are separate records, joined by “and”; a condition that tells them apart may be missing. Identical values can stand only once.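 Following 48 hours of exposure in 96-well plates, responses at five concentrations were used to interpolate endpoints linearly. GI50: concentration for 50% inhibition of growth. TGI is the concentration that stops growth completely.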 Where only a bound is given, the exact number is not on record here.

Consider `CCCCCC(=O)OCC(=O)O[C@@H]1C[C@]2(C(C)C)O[C@@]1(C)[C@@H]1CC[C@@H](C)[C@H]1[C@@H]2OC(=O)/C=C/c1ccccc1`, for which the GI50 in the assay with BT-549 breast is 0.0923 µM; with HCT-15 colon, over 34.3 µM; in the assay with HL-60(TB) leukemia, over 53.2 µM; in the assay with HT29 colon it was over 37.4 µM; with KM12 colon it was over 78.5 µM; with LOX IMVI melanoma, over 49.9 µM. The GI50 in the assay with MALME-3M melanoma is over 35.4 µM; in the assay on NCI-H23 lung, over 52.8 µM; in the assay with SF-295 CNS, over 68.2 µM; in the assay with T-47D breast, 10 µM. For the same compound, the TGI is 14.4 µM in the assay on BT-549 breast; over 70 µM in the assay with HCT-15 colon; over 80.3 µM with HL-60(TB) leukemia; over 79.1 µM with HT29 colon; over 100 µM with KM12 colon; over 72.6 µM in the assay on LOX IMVI melanoma. Moreover, the TGI in the assay with MALME-3M melanoma was over 57 µM; in the assay with NCI-H23 lung, over 75.7 µM; in the assay with SF-295 CNS it was over 100 µM; in the assay on T-47D breast it was over 92.7 µM.
For `CC1CCC2C(C)C3C(CC4C5CC=C6CC(OC7OC(CO)C(O)C(OC8OC(CO)C(O)C(O)C8O)C7OC7OC(C)C(O)C(O)C7O)CCC6(C)C5CCC43C)N2C1` (centres undefined), the GI50 with BT-549 breast, in the assay with HCT-15 colon, in the assay with HT29 colon, in the assay on KM12 colon, with LOX IMVI melanoma and in the assay with MALME-3M melanoma was over 2.5 µg/mL in each case. For the same compound, the GI50 in the assay with NCI-H23 lung, in the assay with SF-295 CNS and in the assay with T-47D breast was over 2.5 µg/mL each time. In addition, the TGI with BT-549 breast was 31.9 µM and > 2.5 µg/mL; in the assay with HCT-15 colon it was 33 µM and > 2.5 µg/mL; in the assay with HL-60(TB) leukemia, 25.4 µM; in the assay with HT29 colon, 25.6 µM and > 2.5 µg/mL; in the assay on KM12 colon, 28.3 µM and > 2.5 µg/mL; with LOX IMVI melanoma, 29.7 µM and > 2.5 µg/mL. Also, the TGI in the assay on MALME-3M melanoma is 65.3 µM and > 2.5 µg/mL; with NCI-H23 lung, 29.8 µM and > 2.5 µg/mL; with SF-295 CNS, 22.7 µM and > 2.5 µg/mL; in the assay with T-47D breast, 45 µM and > 2.5 µg/mL.
As for `O=[N+]([O-])c1cc(Cl)cc2c1nc(NCCO)c1ccccc12`, the TGI is over 82.1 µM with BT-549 breast; over 100 µM with HCT-15 colon; over 56.2 µM in the assay on HL-60(TB) leukemia; over 43 µM with HT29 colon; 93.7 µM in the assay with KM12 colon; over 100 µM with LOX IMVI melanoma. Further, the TGI with MALME-3M melanoma was 57.1 µM; with NCI-H23 lung, over 80.9 µM; with SF-295 CNS it was over 100 µM; in the assay on T-47D breast, over 100 µM.
Take `CS(=O)(=O)OCCN(CCOS(C)(=O)=O)c1ccc(C=Nc2ccc3oc(=O)ccc3c2)cc1`: the TGI with BT-549 breast came out at 45.7 µM; in the assay with HCT-15 colon, 37.9 µM; with HL-60(TB) leukemia, 41.3 µM; in the assay on HT29 colon, 53.6 µM; in the assay on KM12 colon it was 30.3 µM; with LOX IMVI melanoma it was 29.9 µM. The TGI in the assay on MALME-3M melanoma amounted to 23.8 µM; in the assay with NCI-H23 lung, 17.5 µM; with SF-295 CNS, 42.2 µM; in the assay on T-47D breast, 72.8 µM.
Take `CC(=O)NCCCCCCNC(C)=O`: the TGI in the assay on BT-549 breast was over 10000 µM; in the assay with HCT-15 colon it was over 10000 µM; in the assay on HL-60(TB) leukemia, 9000 µM; in the assay with HT29 colon it was over 10000 µM; in the assay on KM12 colon, over 10000 µM; in the assay on LOX IMVI melanoma it was over 10000 µM. Moreover, the TGI is 7700 µM in the assay on MALME-3M melanoma, over 10000 µM with NCI-H23 lung, over 10000 µM with SF-295 CNS and over 10000 µM in the assay with T-47D breast.
`CCCC[P+](c1ccccc1)(c1ccccc1)c1ccccc1`: the GI50 with BT-549 breast is 3.32 µM; in the assay with HCT-15 colon it was over 100 µM; in the assay with HL-60(TB) leukemia, 0.955 µM; in the assay on HT29 colon, 3.03 µM; with KM12 colon, 0.944 µM; in the assay with LOX IMVI melanoma, 3.01 µM. In addition, the GI50 in the assay on MALME-3M melanoma is 4.29 µM; in the assay with NCI-H23 lung, 2.57 µM; with SF-295 CNS, 5.29 µM; with T-47D breast, 0.628 µM. Moreover, the TGI in the assay with BT-549 breast is 74.7 µM; in the assay on HCT-15 colon, over 100 µM; in the assay on HL-60(TB) leukemia it was 6.91 µM; in the assay on HT29 colon it was over 100 µM; in the assay on KM12 colon, 66.3 µM; with LOX IMVI melanoma, over 100 µM. Moreover, the TGI in the assay on MALME-3M melanoma is over 100 µM; in the assay with NCI-H23 lung it was 32.6 µM; in the assay with SF-295 CNS it was 37.3 µM; in the assay with T-47D breast it was over 100 µM.
Regarding `COC(=O)c1c2c(c(C)[n+]([O-])c1C)C(=O)C(NCc1cccc(OC)c1)=CC2=O`, the GI50 in the assay on BT-549 breast is 3.49 µM; with HCT-15 colon it was 1.89 µM; with HL-60(TB) leukemia, 1.78 µM; with HT29 colon, 2.51 µM; with KM12 colon it was 2.48 µM; in the assay on LOX IMVI melanoma, 2.36 µM. Moreover, the GI50 with MALME-3M melanoma is 0.318 µM; in the assay on NCI-H23 lung, 1.84 µM; with SF-295 CNS, 2.05 µM; with T-47D breast, 2.23 µM. Also, the TGI with BT-549 breast was 13.4 µM; in the assay with HCT-15 colon, 4.73 µM; in the assay on HL-60(TB) leukemia, 5.39 µM; with HT29 colon, over 100 µM; in the assay on KM12 colon it was 11.6 µM; in the assay with LOX IMVI melanoma, 6.86 µM. Further, the TGI in the assay on MALME-3M melanoma worked out at 1.3 µM; in the assay with NCI-H23 lung, 4.41 µM; with SF-295 CNS, 6.13 µM; in the assay with T-47D breast, 5.47 µM.
As to `O=C(c1ccco1)c1c(C(F)(F)F)nc2cc(C(F)(F)F)ccc2[n+]1[O-]`, the GI50 in the assay with BT-549 breast was 57.8 µM; with HCT-15 colon it was over 100 µM; in the assay with HL-60(TB) leukemia it was over 100 µM; in the assay on HT29 colon, over 100 µM; with KM12 colon, over 100 µM; with LOX IMVI melanoma, 48.1 µM. Further, the GI50 is 54.2 µM in the assay with MALME-3M melanoma, 48.4 µM with NCI-H23 lung, 17.5 µM in the assay with SF-295 CNS and 18.9 µM in the assay with T-47D breast. The TGI with BT-549 breast, in the assay with HCT-15 colon, in the assay with HL-60(TB) leukemia, with HT29 colon, with KM12 colon and with LOX IMVI melanoma was over 100 µM in each case. For the same compound, the TGI in the assay with MALME-3M melanoma was over 100 µM; with NCI-H23 lung, over 100 µM; in the assay on SF-295 CNS, 40.4 µM; with T-47D breast, 49.6 µM.
